# In PubChem BioAssay AID1259407 (Chemical Carcinogenesis Research Information System (CCRIS), 2018):
# Calls of active or inactive are those of the source. No rule for the calls is given here.
# Tested on: CCRIS mutagenicity, Ames/micronucleus/aberration tests
# Assay: CCRIS mutagenicity studies
# [1] = End Point: IN VITRO CHROMOSOMAL ABERRATIONS, Test System: CHO CELLS, Metabolic Activation: NONE
# [2] = Test System: AMES SALMONELLA TYPHIMURIUM, Strain/Indicator: TA98, Metabolic Activation: NONE, Method: PREINCUBATION
# [3] = Test System: AMES SALMONELLA TYPHIMURIUM, Strain/Indicator: TA98, Metabolic Activation: NONE, Method: STANDARD PLATE
# [4] = Test System: AMES SALMONELLA TYPHIMURIUM, Strain/Indicator: TA100, Metabolic Activation: NONE, Method: PREINCUBATION
# [5] = Test System: AMES SALMONELLA TYPHIMURIUM, Strain/Indicator: TA100, Metabolic Activation: NONE, Method: STANDARD PLATE
compound,measurement,setting,value
C=C(C)[C@H]1CC=C(C)CC1,mutagenic call,[1],inactive; negative
same,mutagenic call,"End Point: IN VITRO CHROMOSOMAL ABERRATIONS, Test System: CHO CELLS, Metabolic Activation: RAT, LIVER, S-9, AROCLOR 1254",inactive; negative
same,mutagenic call,"Test System: AMES SALMONELLA TYPHIMURIUM, Strain/Indicator: TA98, Metabolic Activation: HAMSTER, LIVER, S-9, AROCLOR 1254, Method: PREINCUBATION",inactive; negative
same,mutagenic call,[2],inactive; negative
same,mutagenic call,[3],inactive; negative
same,mutagenic call,"Test System: AMES SALMONELLA TYPHIMURIUM, Strain/Indicator: TA98, Metabolic Activation: RAT, LIVER, S-9, AROCLOR 1254, Method: PREINCUBATION",inactive; negative
same,mutagenic call,"Test System: AMES SALMONELLA TYPHIMURIUM, Strain/Indicator: TA98, Metabolic Activation: RAT, LIVER, S-9, AROCLOR, Method: STANDARD PLATE",inactive; negative
same,mutagenic call,"Test System: AMES SALMONELLA TYPHIMURIUM, Strain/Indicator: TA100, Metabolic Activation: HAMSTER, LIVER, S-9, AROCLOR 1254, Method: PREINCUBATION",inactive; negative
same,mutagenic call,[4],inactive; negative
same,mutagenic call,[5],inactive; negative
same,mutagenic call,"Test System: AMES SALMONELLA TYPHIMURIUM, Strain/Indicator: TA100, Metabolic Activation: RAT, LIVER, S-9, AROCLOR 1254, Method: PREINCUBATION",inactive; negative
same,mutagenic call,"Test System: AMES SALMONELLA TYPHIMURIUM, Strain/Indicator: TA100, Metabolic Activation: RAT, LIVER, S-9, AROCLOR, Method: STANDARD PLATE",inactive; negative
same,mutagenic call,"Test System: AMES SALMONELLA TYPHIMURIUM, Strain/Indicator: TA1535, Metabolic Activation: HAMSTER, LIVER, S-9, AROCLOR 1254, Method: PREINCUBATION",inactive; negative
same,mutagenic call,"Test System: AMES SALMONELLA TYPHIMURIUM, Strain/Indicator: TA1535, Metabolic Activation: NONE, Method: PREINCUBATION",inactive; negative
same,mutagenic call,"Test System: AMES SALMONELLA TYPHIMURIUM, Strain/Indicator: TA1535, Metabolic Activation: RAT, LIVER, S-9, AROCLOR 1254, Method: PREINCUBATION",inactive; negative
same,mutagenic call,"Test System: AMES SALMONELLA TYPHIMURIUM, Strain/Indicator: TA1537, Metabolic Activation: HAMSTER, LIVER, S-9, AROCLOR 1254, Method: PREINCUBATION",inactive; negative
same,mutagenic call,"Test System: AMES SALMONELLA TYPHIMURIUM, Strain/Indicator: TA1537, Metabolic Activation: NONE, Method: PREINCUBATION",inactive; negative
same,mutagenic call,"Test System: AMES SALMONELLA TYPHIMURIUM, Strain/Indicator: TA1537, Metabolic Activation: RAT, LIVER, S-9, AROCLOR 1254, Method: PREINCUBATION",inactive; negative
same,mutagenic call,"Test System: AMES SALMONELLA TYPHIMURIUM, Strain/Indicator: UTH8413, Metabolic Activation: NONE, Method: STANDARD PLATE",inactive; negative
same,mutagenic call,"Test System: AMES SALMONELLA TYPHIMURIUM, Strain/Indicator: UTH8413, Metabolic Activation: RAT, LIVER, S-9, AROCLOR, Method: STANDARD PLATE",inactive; negative
same,mutagenic call,"Test System: AMES SALMONELLA TYPHIMURIUM, Strain/Indicator: UTH8414, Metabolic Activation: NONE, Method: STANDARD PLATE",inactive; negative
same,mutagenic call,"Test System: AMES SALMONELLA TYPHIMURIUM, Strain/Indicator: UTH8414, Metabolic Activation: RAT, LIVER, S-9, AROCLOR, Method: STANDARD PLATE",inactive; negative
same,mutagenic call,"Test System: MOUSE LYMPHOMA, Strain/Indicator: L5178Y (TK+/TK-), Metabolic Activation: NONE, Method: SUSPENSION/PLATE",inactive; negative
same,mutagenic call,"Test System: MOUSE LYMPHOMA, Strain/Indicator: L5178Y (TK+/TK-), Metabolic Activation: RAT, LIVER, S-9, AROCLOR 1254, Method: SUSPENSION/PLATE",active; positive
Cc1cc(O)c2c(c1)C(=O)c1cccc(O)c1C2=O,mutagenic call,"End Point: IN VITRO CHROMOSOMAL ABERRATIONS, Test System: CHO CELLS, Metabolic Activation: MALE WISTAR RAT, LIVER, S-9",inactive; negative; tested to limit of solubility
same,mutagenic call,[1],inactive; negative; tested to limit of solubility
same,mutagenic call,[2],inactive; negative
same,mutagenic call,[3],inactive; negative
same,mutagenic call,"Test System: AMES SALMONELLA TYPHIMURIUM, Strain/Indicator: TA98, Metabolic Activation: RAT, LIVER, S-9, AROCLOR 1254, Method: STANDARD PLATE",inactive; negative
same,mutagenic call,"Test System: AMES SALMONELLA TYPHIMURIUM, Strain/Indicator: TA98, Metabolic Activation: RAT, LIVER, S-9, PCB, Method: PREINCUBATION",inactive; negative
same,mutagenic call,[4],inactive; negative
same,mutagenic call,[5],inactive; negative
same,mutagenic call,"Test System: AMES SALMONELLA TYPHIMURIUM, Strain/Indicator: TA100, Metabolic Activation: RAT, LIVER, S-9, AROCLOR 1254, Method: STANDARD PLATE",inactive; negative
same,mutagenic call,"Test System: AMES SALMONELLA TYPHIMURIUM, Strain/Indicator: TA100, Metabolic Activation: RAT, LIVER, S-9, PCB, Method: PREINCUBATION",inactive; negative
same,mutagenic call,"Test System: AMES SALMONELLA TYPHIMURIUM, Strain/Indicator: TA102, Metabolic Activation: NONE, Method: PREINCUBATION",active; positive
same,mutagenic call,"Test System: AMES SALMONELLA TYPHIMURIUM, Strain/Indicator: TA102, Metabolic Activation: RAT, LIVER, S-9, Method: PREINCUBATION",active; positive
same,mutagenic call,"Test System: AMES SALMONELLA TYPHIMURIUM, Strain/Indicator: TA1535, Metabolic Activation: NONE, Method: STANDARD PLATE",inactive; negative
same,mutagenic call,"Test System: AMES SALMONELLA TYPHIMURIUM, Strain/Indicator: TA1535, Metabolic Activation: RAT, LIVER, S-9, AROCLOR 1254, Method: STANDARD PLATE",inactive; negative
same,mutagenic call,"Test System: AMES SALMONELLA TYPHIMURIUM, Strain/Indicator: TA1537, Metabolic Activation: RAT, LIVER, S-9, AROCLOR 1254, Method: STANDARD PLATE",active; positive
same,mutagenic call,"Test System: AMES SALMONELLA TYPHIMURIUM, Strain/Indicator: TA1537, Metabolic Activation: RAT, LIVER, S-9, Method: PREINCUBATION",active; positive
same,mutagenic call,"Test System: AMES SALMONELLA TYPHIMURIUM, Strain/Indicator: TA1538, Metabolic Activation: NONE, Method: STANDARD PLATE",inactive; negative
same,mutagenic call,"Test System: AMES SALMONELLA TYPHIMURIUM, Strain/Indicator: TA1538, Metabolic Activation: RAT, LIVER, S-9, AROCLOR 1254, Method: STANDARD PLATE",inactive; negative
CC(=O)c1cccc(N=Nc2ccc(N)c(C(C)=O)c2C)c1C,mutagenic call,[2],inactive; negative
same,mutagenic call,"Test System: AMES SALMONELLA TYPHIMURIUM, Strain/Indicator: TA98, Metabolic Activation: RAT, LIVER, S-9, PHENOBARBITAL AND 5,6-BENZOFLAVONE, Method: PREINCUBATION",inactive; negative
same,mutagenic call,[4],inactive; negative
same,mutagenic call,"Test System: AMES SALMONELLA TYPHIMURIUM, Strain/Indicator: TA100, Metabolic Activation: RAT, LIVER, S-9, PHENOBARBITAL AND 5,6-BENZOFLAVONE, Method: PREINCUBATION",inactive; negative
CC(C)NCC(O)c1cc(O)cc(O)c1 (configuration not stated),mutagenic call,"End Point: MORPHOLOGICAL TRANSFORMATION, Test System: SYRIAN HAMSTER EMBRYO CELLS (SHE), Metabolic Activation: NONE",inactive; negative
